Earlier results as cited in patent US7374751B1, “QS-21 and IL-12 as an adjuvant combination” (Wyeth Holdings Corporation, priority 2001, dated 2008).

Settings: clinical data, F/QS-21 formulation, immediately after injection

In the case of QS-21, the local acute toxicity is listed as “associated with local acute toxicity immediately after injection”.
